Assay results as given in patent US20190167771A1, “CONTROL ANGIOGENESIS BY REGULATING PHOSPHORYLATION OF SERYL-tRNA SYNTHETASE (SerRS)” (The Scripps Research Institute, priority 2016, published 2019).

Assays:
[1] = tested on: ATM/ATR kinases; experiment: Phosphorylation of exogenously expressed Flag-tagged SerRS in hypoxic HEK293 cells (IP/IB with anti-P-SQ); assay type: cell-based, human; conditions: hypoxia 12 hours
[2] = tested on: VEGFA; experiment: VEGFA expression by qRT-PCR in HEK293 cells transfected with SerRS constructs; assay type: cell-based, human; conditions: HEK293 cells transfected with construct
Procedure: In FIG. 2A, wild type SerRS (SerRS^WT), its mutants with double substitutions of serine 101 and 241 with alanine or aspartic acid residues (SerRS^S101A/S241A and SerRS^S101D/S241D), or empty vector were transfected into HEK293 cells. The expression levels of SerRS proteins was measured by immunoblot (bottom) and VEGFA expression was determined by qRT-PCR (means±SEM from three independent experiments; ***P<0.0001). […] At 3 day post fertilization (dpf), embryos were harvested and Vegfa expression levels were measured by qRT-PCR (means±SEM, n=125-211; *P<0.01, **P<0.001) (B). The development of intersegmental vessel (ISV) at 3 dpf was examined (C) and the statistics of ISV abnormal branching rescued by SerRS^WT or mutant SerRS mRNA injections was analyzed (D; χ^2-test,* P>0.05 vs SerRS^WT, **P>0.1 vs SerRS-MO, ***P<1×10^−28 vs control-MO). […] In FIG. 2G, the binding of endogenous SerRS on VEGFA promoter during hypoxia course was monitored by ChIP (means±SEM from three independent experiments; *P<0.05, **P<0.005 vs normal). […]
HEK293 cells were transfected with wild type (WT) SerRS or SerRS mutants. […] At 24 hours post-transfection, cells were harvested and VEGFA expression levels were measured by qRT-PCR and relative VEGFA transcription were plotted after being normalized to 1-actin (means±: SEM).

[3] = tested on: SerRS binding site on human VEGFA promoter; experiment: EMSA with 32P-labeled 27-bp DNA fragment of the VEGFA promoter; conditions: recombinant protein
[4] = tested on: VEGFA promoter; experiment: Chromatin immunoprecipitation (ChIP) on VEGFA promoter in HEK293 cells; assay type: cell-based, human; conditions: ChIP and qPCR
Procedure: In FIG. 2A, wild type SerRS (SerRS^WT), its mutants with double substitutions of serine 101 and 241 with alanine or aspartic acid residues (SerRS^S101A/S241A and SerRS^S101D/S241D), or empty vector were transfected into HEK293 cells. The expression levels of SerRS proteins was measured by immunoblot (bottom) and VEGFA expression was determined by qRT-PCR (means±SEM from three independent experiments; ***P<0.0001). […] At 3 day post fertilization (dpf), embryos were harvested and Vegfa expression levels were measured by qRT-PCR (means±SEM, n=125-211; *P<0.01, **P<0.001) (B). The development of intersegmental vessel (ISV) at 3 dpf was examined (C) and the statistics of ISV abnormal branching rescued by SerRS^WT or mutant SerRS mRNA injections was analyzed (D; χ^2-test,* P>0.05 vs SerRS^WT, **P>0.1 vs SerRS-MO, ***P<1×10^−28 vs control-MO). […] In FIG. 2G, the binding of endogenous SerRS on VEGFA promoter during hypoxia course was monitored by ChIP (means±SEM from three independent experiments; *P<0.05, **P<0.005 vs normal).
Cells were fixed with formaldehyde (1% final concentration) for 10 min at room temperature. […] After 3 washes, ChIPed DNA was analyzed on the StepOnePlus Real-Time PCR system using SYBR Select Master Mix (Applied Biosystems). […]

direct binding to 27-bp DNA fragment from the VEGFA promoter [3]	Substance	phosphorylation of exogenously expressed SerRS [1]	repression of VEGFA transcription [2]	binding on VEGFA promoter [4]
–	SerRS^S101A/S241A: phosphorylation-deficient human SerRS double mutant, serine 101 and 241 to alanine, SEQ ID NO: 4 (mouse version in matrigel assay)	much weaker phosphorylation than wild type SerRS	–	–
attenuated	SerRS^S101D/S241D: SerRS with double substitutions of S101 and S241 with aspartic acid, mimics the phosphorylated SerRS	–	can no longer repress VEGFA transcription	decreased binding on VEGFA promoter
